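The compound was tested at five concentrations on cells cultured in 96-well plates, with a 48-hour exposure period. Here, GI50 denotes the concentration required for 50% inhibition of growth.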 Activity calls are given as the source filed them. Rule as the data show it: active = GI50 up to about 1.1 µM and inactive = higher.
What was measured:
Assay in all cases: growth of human tumour cells (NCI), 48 h
BT-549 = tested on: BT-549
786-0 = tested on: 786-0
DU-145 = tested on: DU-145
CAKI-1 = tested on: CAKI-1
SK-MEL-28 = tested on: SK-MEL-28
RXF 393 = tested on: RXF 393
TK-10 = tested on: TK-10
MCF7 = tested on: MCF7
K562 = tested on: K562
MOLT-4 = tested on: MOLT-4
NCI-H522 = tested on: NCI-H522
U-251 = tested on: U-251
NCI-H23 = tested on: NCI-H23
OVCAR-5 = tested on: OVCAR-5
Malme-3M = tested on: Malme-3M
OVCAR-8 = tested on: OVCAR-8
UO-31 = tested on: UO-31
SK-MEL-5 = tested on: SK-MEL-5
HL-60 = tested on: HL-60
Hs-578T = tested on: Hs-578T
SN12C = tested on: SN12C
COLO 205 = tested on: COLO 205
A498 = tested on: A498
T47D = tested on: T47D
MDA-MB-231 = tested on: MDA-MB-231
SF-295 = tested on: SF-295
ACHN = tested on: ACHN
SW-620 = tested on: SW-620
SNB-75 = tested on: SNB-75
UACC-257 = tested on: UACC-257
HOP-92 = tested on: HOP-92
SK-OV-3 = tested on: SK-OV-3
KM12 = tested on: KM12
HCT-116 = tested on: HCT-116
A549 = tested on: A549
OVCAR-3 = tested on: OVCAR-3
HCC 2998 = tested on: HCC 2998
MDA-N = tested on: MDA-N
MDA-MB-435 = tested on: MDA-MB-435
NCI-H226 = tested on: NCI-H226
LOX IMVI = tested on: LOX IMVI
OVCAR-4 = tested on: OVCAR-4
M14 = tested on: M14
UACC-62 = tested on: UACC-62
SK-MEL-2 = tested on: SK-MEL-2
IGROV-1 = tested on: IGROV-1
EKVX = tested on: EKVX
NCI-H460 = tested on: NCI-H460
SNB-19 = tested on: SNB-19
NCI/ADR-RES = tested on: NCI/ADR-RES
PC-3 = tested on: PC-3
SR = tested on: SR
HCT-15 = tested on: HCT-15
SF-268 = tested on: SF-268
CCRF-CEM = tested on: CCRF-CEM
HOP-62 = tested on: HOP-62
HT-29 = tested on: HT-29

`Oc1ccc(-c2cn3cc(C(F)(F)F)ccc3n2)cc1` was tested, and the GI50 (BT-549) was 56.4 µM (inactive), the GI50 (786-0) was 30.7 µM (inactive) and the GI50 (DU-145) was 30.6 µM (inactive). The GI50 (CAKI-1) was 60.1 µM (inactive), the GI50 (SK-MEL-28) was > 100 µM (inactive) and the GI50 (RXF 393) was 31.6 µM (inactive). For the same compound, the GI50 (TK-10) was 41.5 µM (inactive), the GI50 (MCF7) was 26.7 µM (inactive) and the GI50 (K562) was 35.2 µM (inactive). For the same compound, the GI50 (MOLT-4) was 26.5 µM (inactive), the GI50 (NCI-H522) was 17.3 µM (inactive) and the GI50 (U-251) was 41.1 µM (inactive). For the same compound, the GI50 (NCI-H23) was 38 µM (inactive), the GI50 (OVCAR-5) was 76.9 µM (inactive) and the GI50 (Malme-3M) was 71.8 µM (inactive). For the same compound, the GI50 (OVCAR-8) was 37.8 µM (inactive), the GI50 (UO-31) was 61.5 µM (inactive) and the GI50 (SK-MEL-5) was 32.1 µM (inactive). The GI50 (HL-60) was 9.18 µM (inactive), the GI50 (Hs-578T) was > 100 µM (inactive) and the GI50 (SN12C) was 72.3 µM (inactive). For the same compound, the GI50 (COLO 205) was 45.2 µM (inactive), the GI50 (A498) was 70.1 µM (inactive) and the GI50 (T47D) was 18.3 µM (inactive). For the same compound, the GI50 (MDA-MB-231) was > 100 µM (inactive), the GI50 (SF-295) was 45.7 µM (inactive) and the GI50 (ACHN) was 12.1 µM (inactive). For the same compound, the GI50 (SW-620) was 75.5 µM (inactive), the GI50 (SNB-75) was 6.84 µM (inactive) and the GI50 (UACC-257) was 29.6 µM (inactive). The GI50 (HOP-92) was > 100 µM (inactive), the GI50 (SK-OV-3) was > 100 µM (inactive) and the GI50 (KM12) was 43.3 µM (inactive). The GI50 (HCT-116) was 49.1 µM (inactive), the GI50 (A549) was 44.8 µM (inactive) and the GI50 (OVCAR-3) was 41.3 µM (inactive). The GI50 (HCC 2998) was 22.1 µM (inactive), the GI50 (MDA-N) was 43.7 µM (inactive) and the GI50 (MDA-MB-435) was 41.2 µM (inactive). The GI50 (NCI-H226) was 74.3 µM (inactive), the GI50 (LOX IMVI) was 43.2 µM (inactive) and the GI50 (OVCAR-4) was 55.7 µM (inactive). The GI50 (M14) was 51.3 µM (inactive), the GI50 (UACC-62) was 31.7 µM (inactive) and the GI50 (SK-MEL-2) was 62.2 µM (inactive). For the same compound, the GI50 (IGROV-1) was 63.2 µM (inactive), the GI50 (EKVX) was 56.2 µM (inactive) and the GI50 (NCI-H460) was 32.1 µM (inactive). The GI50 (SNB-19) was > 100 µM (inactive), the GI50 (NCI/ADR-RES) was 29.9 µM (inactive) and the GI50 (PC-3) was 46.9 µM (inactive). For the same compound, the GI50 (SR) was 26.2 µM (inactive), the GI50 (HCT-15) was 35.6 µM and the GI50 (SF-268) was 89.1 µM (inactive). For the same compound, the GI50 (CCRF-CEM) was 15.9 µM (inactive), the GI50 (HOP-62) was > 100 µM (inactive) and the GI50 (HT-29) was 34.8 µM (inactive).

Source: ChEMBL document CHEMBL1201862, “PubChem BioAssay data set” (2004)
